Data taken from paper PMC6770517, “Insight into the Antifungal Mechanism of Action of Human RNase N-terminus Derived Peptides” (International Journal of Molecular Sciences, 2019).
Values after ≈ are worked out from the molar mass of the structure shown. Where no end group is shown, it is not given here.

B1: hRNase3: human ribonuclease 3 of the RNaseA superfamily, parental protein of RN3 (protein, UniProt P12724 28-160, looked up)
Eosinophil cationic protein: RPPQFTRAQWFAIQHISLNPPRCTIAMRAINNYRWRCKNQNTFLRTTFANVVNVCGNQSIRCPHNRTLNNCHRSRFRVPLLHCDLINPGAQNISNCTYADRPGRRFYVVACDNRDPRDSPRYPVVPVHLDTTI

What was measured:
C. albicans [1] = conditions: as previously reported; cited from earlier work
in vitro = type: cell-based; conditions: human
Experimental: The peptide cytoxicity was evaluated using the human monocytic THP1 cell line. The assay was performed in 96-well cell culture flat-bottom plates (Costar; Appleton Woods) in triplicate. THP-1 cultures were induced to macrophages by adding 2 ng/mL of colony-stimulating factor (R&D Systems, Germany). Peptides were serially diluted from 50 to 0.1 µM and added to 5 × 10^5 cells/mL. After 48 h of incubation, the cells were washed twice with 1× PBS, and fresh RPMI-1640 complete medium was added. Plates were then treated with 30 μL of a freshly prepared 0.01% resazurin solution and incubated overnight at 37 °C. The following day the change in color was observed and the fluorescence intensity was measured (λex560 nm, λem590 nm). The 50% growth inhibitory concentration (GIC50) was determined based on the resazurin fluorescence signal.

C. albicans [2] = assay: Minimum fungicidal concentration by CFU counting; type: cell-based, Candida albicans (ATCC 90028); conditions: for MFC100, PBS / MFC100, Sabouraud Broth: C. albicans ~2 × 10^5 cells/mL, CFU counting, peptides 20 to 0.1 µM, mean ± SEM, two independent experiments in triplicate; for MFC100, PBS: 4 h at 30 °C in PBS; for MFC100, Sabouraud Broth: 4 h at 30 °C in Sabouraud nutrient broth
Experimental: C. albicans was cultured overnight in Sabouraud Dextrose broth at 30 °C, sub-cultured the next day in fresh media and grown to an optical density of 0.4 at 592 nm (mid log-phase). Cells were washed twice and diluted to ~2 × 10^5 cells/mL. Peptides serially diluted were added to the cells from 20 to 0.1 µM final concentration. C. albicans was incubated at 30 °C during 4h in Sabouraud nutrient broth or PBS. Following, the samples were plated onto Sabouraud Petri dishes and incubated at 30 °C overnight. Antifungal activity was expressed as the MFC, defined as the lowest peptide concentration required for more than 99% of microorganism killing. MFC of each peptide was determined from two independent experiments performed in triplicate for each concentration.

[3] = tested on: C. albicans planktonic cells; type: cell-based, Candida albicans (ATCC 90028); conditions: 4 h
Experimental: Cell viability of C. albicans was assayed using the BacTiter-Glo™ Microbial Cell Viability kit (Promega), which measures the number of viable cells, by ATP quantification. ATP, as an indicator of metabolically active cells, is indirectly measured by a coupled luminescence detection assay. The luminescent signal is proportional to the amount of ATP required for the conversion of luciferin into oxyluciferin in the presence of luciferase. An overnight culture of C. albicans was used to inoculate fresh Sabouraud liquid culture, and logarithmic phase culture was grown to an OD592 of 0.2. RNase derived N-terminal peptides were added to 0.1 mL of cell culture at a final concentration from 0.025 to 20 μM. The C. albicans viability was followed after 4 h of incubation at 30 °C. 50 µL of incubation culture were mixed with 50 µL of BacTiter-Glo^TM reagent in a microtiter plate following the manufacturer instructions and incubated at room temperature for 10 min. Luminiscence was read on a Victor3 plate reader (PerkinElmer, Waltham, MA, USA) with a 1-s integration time. IC50 values were calculated by fitting the data to a dose-response curve.

C. albicans cells [4] = assay: Minimal agglutination activity (MAC); type: cell-based, Candida albicans (ATCC 90028); conditions: for MAC (minimal agglutination concentration): C. albicans in PBS, 1 h at 30 °C, peptides 0.01 to 20 μM, visual inspection, mean ± SEM, three replicates of two independent experiments
Experimental: C. albicans cells were grown at 30 °C to an OD592 of 1.0, diluted 10 times, centrifuged at 5000× g for 2 min, and resuspended in 1× PBS. An aliquot of 100 μL of the cellular suspension was treated with increasing peptide concentrations (from 0.01 to 20 μM) and incubated at 30 °C for 1 h. The aggregation behavior was observed by visual inspection, and the agglutinating activity is expressed as the minimum agglutinating concentration of the sample tested, as previously described. Images were taken using a 50× stereoscope microscope.

[5] = tested on: C. albicans cytoplasmic membrane; assay: Cell membrane depolarization assay (DiSC3); type: cell-based, Candida albicans (ATCC 90028); conditions: mean ± SEM; for Membrane Depolarization ED50: DiSC3 probe, peptide 0.1 to 5 µM, 50 min, 20 °C, Hepes-KOH pH 7.2; for Membrane Depolarization Depolmax: maximum fluorescence value at final incubation time with 2 µM peptide, DiSC3
Experimental: Membrane depolarization was assayed by monitoring the DiSC3 fluorescence intensity change in response to changes in transmembrane potential as described previously. C. albicans cells were grown at 30 °C to the mid-exponential (OD592~0.4) and resuspended in 5 mM Hepes-KOH, 20 mM glucose and 100 mM KCl at pH 7.2. DiSC3 was added to a final concentration of 0.4 µM. Changes in the fluorescence for alteration of the cell plasma membrane potential were continuously monitored at 20 °C at an excitation wavelength of 620 nm and an emission wavelength of 670 nm. When the dye uptake was maximal, as indicated by a stable reduction in the fluorescence as a result of quenching of the accumulated dye in the membrane interior, protein in 5 mM Hepes-KOH buffer at pH 7.2 was added at a final peptide concentration from 1 to 5 μM and incubated for 50 min, to calculate the ED50 concentration. Maximum depolarization was calculated when the fluorescence signal was fully stabilized, and the depolarization percentage was calculated taking Triton X-100 at 10% as a maximum reference value. The time required to reach a stabilized maximum fluorescence reading was recorded for each condition, and the time required to achieve half of total membrane depolarization was estimated from the nonlinear regression curve. All conditions were assayed in duplicate.

[6] = tested on: C. albicans cytoplasmic membrane; assay: Cell membrane permeabilization (Sytox Green uptake); type: cell-based, Candida albicans (ATCC 90028); conditions: mean ± SEM; for Membrane Permeabilization Max. Perm.: Sytox Green fluorescence, PBS, 50 min; for Membrane Permeabilization Perm.: maximum at final incubation time (50 min), referred to positive control 10 % Triton X-100, Sytox Green
Experimental: Membrane permeabilization was evaluated by using the Sytox® Green uptake assay. Sytox® Green is a cationic cyanine dye which is unable to cross the membrane. When cells’ plasma membrane integrity is compromised, the dye enters into the cell, binding to DNA and triggering a large increase of the fluorescence signal. For Sytox® Green assays, C. albicans cells were grown to mid-exponential growth phase at 30 °C and then centrifuged, washed, and resuspended in PBS. Cell suspensions in PBS (~2 × 10^6 cells/mL) were incubated with 1 μM Sytox® Green for 15 min in the dark prior to the influx assay. At 2 to 4 min after initiating data collection, proteins at 1 and 5 μM final concentration were added to the cell suspension, and the increase in Sytox® Green fluorescence was measured (excitation wavelength at 485 nm and emission at 520 nm) for 50 min in a Cary Eclipse spectrofluorimeter. Fungal cell lysis with 10% Triton X-100 was taken as the maximum fluorescence reference value.

C. albicans [7] = assay: Cell survival assay (Live/Dead kit); type: cell-based, Candida albicans (ATCC 90028); conditions: survival percentage at final incubation time (120 min), mean ± SEM
Experimental: C. albicans viability assay was performed using the Live⁄Dead® microbial viability kit as previously described. Candida strain was grown at 30 °C to ~5 × 10^6 cells/mL, centrifuged at 5000× g for 5 min and resuspended in a 0.85% NaCl solution, in accordance with the manufacturer instructions. C. albicans cell culture was stained using a SYTO®9/propidium iodide 1:1 mixture. SYTO9/propidium iodide staining allowed us to monitor both the candidal viability in planktonic cell cultures and within the biofilm, as the SYTO9 dye is able to permeate the cell membrane and stain the nucleic acid of viable cells; whereas, when the cell membrane is damaged, propidium iodide can diffuse into the cell and displace SYTO9. The method allows the labelling of intact viable cells and membrane compromised cells, which are labelled in green and red respectively, referred to as live and dead cells. The viability kinetics were monitored using a Cary Eclipse Spectrofluorimeter (Varian Inc., Palo Alto, CA, USA). Cell viability profiles were registered after adding from 1 to 5 µM of final peptide concentration. To calculate the cell viability, the fluorescence in the range of 510–540 nm and 620–650 nm were integrated to obtain the SYTO®9 (live cell) and the propidium iodide (dead cell) signals respectively. Then, the percentage of live bacteria was represented as a function of time.

C. albicans cells [8] = assay: Cell binding assay (supernatant SDS-PAGE); set-up: species or system Candida albicans (ATCC 90028); conditions: 1 μM, PBS, 30 °C, 15, 30 and 60 min; unbound fraction by SDS-PAGE
Experimental: (§1) C. albicans was cultured overnight in Sabouraud Dextrose broth at 30 °C, sub-cultured the next day and grown to an optical density of 0.4 at 592 nm (mid log-phase). Cells were washed twice in PBS and adjusted to 2 × 10^6 cells/mL. Cells and yeast β-D-Glucan (0.4 mg/mL) (Sigma) were respectively incubated in 100 μL of PBS at 30 °C with proteins and peptides at 1 μM final concentration during different periods of time up to 1 h. Following, the samples were centrifuged at 12,000× g. The supernatant samples were concentrated, and the presence of the proteins and peptides was checked by 15–18% SDS-PAGE and Coomassie Blue staining. Reference protein controls were treated following the same protocol in the absence of cells.

[9] = β-D-Glucan binding assay (supernatant SDS-PAGE); set-up: species or system yeast; conditions: β-D-Glucan 0.4 mg/mL, 1 μM, PBS, 30 °C, up to 1 h; unbound fraction by SDS-PAGE
Experimental: as §1

Molecule | MFC taken as internal reference (C. albicans [1]) | IC50 at 48 h (in vitro) | MFC100, PBS (C. albicans [2]) | MFC100, Sabouraud Broth (C. albicans [2]) | IC50 [3] | MAC (minimal agglutination concentration) (C. albicans cells [4]) | Membrane Depolarization ED50 [5] | Membrane Depolarization Depolmax [5] | Membrane Permeabilization Max. Perm. [6] | Membrane Permeabilization Perm. [6] | Cell Survival (C. albicans [7]) | MFC (C. albicans [2]; medium not specified) | agglutination of C. albicans by the parental hRNase (C. albicans cells [4]; protein tested up to 20 μM) | binding to C. albicans cell wall (C. albicans cells [8]) | binding to main cell wall component (β-D-Glucan) [9]
C[C@@H]1[C@H](O)[C@@H](C)/C=C/C=C/C=C/C=C/C=C/C=C/C=C/[C@H](O[C@@H]2O[C@H](C)[C@@H](O)[C@H](N)[C@@H]2O)C[C@@H]2O[C@](O)(C[C@@H](O)C[C@@H](O)[C@H](O)CC[C@@H](O)C[C@@H](O)CC(=O)O[C@H]1C)C[C@H](O)[C@H]2C(=O)O [amphotericin B] | 0.5 µM (≈ 0.462 µg/mL) | – | – | – | – | – | – | – | – | – | – | – | – | – | –
KESRAKKFQRQHMDSDSSPSSSSTYSNQMMRRRNMTQGRSKPVNTFVH-NH2 [RN1] | – | > 50 µM | 3.75 ± 0.30 µM | 3.75 ± 0.50 µM | 2.1 ± 0.2 µM | 1.80 ± 0.40 µM | 4.63 ± 0.70 µM | 65.2 ± 4.6 AU | 26.1 ± 0.4 AU | 8.3 ± 0.4% | 67 ± 1% | – | – | – | –
colistin | 0.25 µM | – | – | – | – | – | – | – | – | – | – | – | – | – | –
QDNSRYTHFLTQHYDAKPQGRDDRYSESIMRRRGLTSPSKDINTFIH-NH2 [RN5] | – | > 50 µM | >20 µM | >20 µM | > 20 µM | 1.80 ± 0.40 µM | 1.51 ± 0.10 µM | 39.1 ± 5.1 AU | 66.5 ± 0.6 AU | 21.8 ± 0.4% | 39 ± 0.5% | inactive | – | – | –
QDGMYQRFLRQHVHPEETGGSDRYSNLMMQRRKMTLYHSKRFNTFIH-NH2 [RN4] | – | > 50 µM | 3.75 ± 0.20 µM | 4.00 ± 0.50 µM | 1.8 ± 0.3 µM | 0.40 ± 0.10 µM | 3.58 ± 1.60 µM | 76.2 ± 4.8 AU | 117 ± 2 AU | 38.7 ± 0.1% | 65 ± 10% | – | – | – | –
B1 | – | – | – | – | – | – | – | – | – | – | – | – | able to agglutinate C. albicans | able to bind to the C. albicans cell wall | positive binding
